Results taken from article PMC6196658, “Activity of Thioallyl Compounds From Garlic Against Giardia duodenalis Trophozoites and in Experimental Giardiasis” (Frontiers in Cellular and Infection Microbiology, 2018).
In brackets after ≈: the same amount, converted by molar mass. Several values for one entry are separate records, joined by “and”; a condition that tells them apart may be missing. Identical values can stand only once.

Key:
[1] = system: G. duodenalis trophozoites; assay: Annexin V-PI flow cytometry (apoptosis/necrosis); assay type: cell-based, Giardia duodenalis; conditions: 0.6 mM (MLC), 24 h
Description: (§1) The identification and quantitative determinations of trophozoites were carried out as follows: (a) apoptosis or necrosis were determined using anti-annexin V-fluorescein isothiocyanate (FITC) antibodies or PI as respective markers, (b) oxidative stress was determined by formation of reactive oxygen species (ROS) with the fluorescent ROS-complexing agent 5-(and 6)-carboxy 2′7′-dichlorodihydrofluorescein diacetate (H2DCFDA), and (c) determination of trophozoites cell cycle stages (G1, S, G2, and G2/M) after exposure to ALC or to a control drug (albendazole, ABZ) was carried out as previously described (Martínez-Espinosa et al., [2015]). In all these assays 20,000 cells per sample were recorded.

[2] = system: G. duodenalis trophozoites; assay: Cell cycle stages, PI flow cytometry; assay type: cell-based, Giardia duodenalis; conditions: 24 h
Description: as §1

[3] = system: G. duodenalis trophozoites; assay: In vitro susceptibility, subculture in liquid medium (SCLM); assay type: cell-based, Giardia duodenalis (WB strain); conditions: SCLM; for IC50: Giardia duodenalis
[4] = system: G. duodenalis trophozoites; assay: In vitro susceptibility, FDA-PI staining; assay type: cell-based, Giardia duodenalis (WB strain); conditions: 24 h exposure
[5] = system: G. duodenalis trophozoites; assay: In vitro susceptibility, direct cell count (DCC); assay type: cell-based, Giardia duodenalis (WB strain); conditions: 24 h exposure
[6] = system: G. duodenalis trophozoites; assay: ROS formation, H2DCFDA flow cytometry; assay type: cell-based, Giardia duodenalis; conditions: 1.2 mM (twice MLC), 24 h
Description: as §1

[7] = system: Spironucleus vortens; parameters: method as in Millet et al., 2011; conditions: ref Millet et al., 2011; cited from earlier work
[8] = system: G. duodenalis trophozoites; assay: Efficacy in experimental giardiasis; conditions: for cure rate (gerbils without trophozoites): read day 13
Description: Eighty male Mongolian gerbils (M. unguiculatus) 6–10 weeks old, weighted 45–60 g and sentinel-checked gerbils free of intestinal parasites were kept in individual cages and distributed in 12 groups of 6 animals per treatment and experimental infections were performed as described elsewhere (Argüello-García and Ortega-Pierres, [1997]). In brief, animals were inoculated intragastrically with 1 × 10^6 G. duodenalis trophozoites in 500 μl sterile PBS per os using gavage under ether anesthesia. Control animals received 500 μl sterile PBS each. […] As additional control, one group of animals received MTZ (38.4 mg/kg at single or double dose). […] Treatment efficacy was evaluated by determining the presence or absence of trophozoites in intestinal contents of control and treated gerbils at day 13 post-infection. For this, gerbils were euthanized by an intraperitoneal injection of pentobarbital at a dose of 150 mg/kg to minimize stress and to reduce suffering, then a 10 cm-long section of intestine (from stomach ending, equivalent to nearly the entire small intestine) was excised after laparotomy, and it was longitudinally opened and rinsed in 20 mL PBS at 4°C for 20 min under shaking (720 rpm, Heidolph^TM rotatory shaker) to determine trophozoites number after parasite detachment from microvilli. Supernatant was collected and centrifuged at 750 × g for 10 min at 4°C, cell pellet was resuspended in 1 mL PBS and trophozoites were counted using a haemocytometer. Gerbils were scored as cured if no trophozoites were recovered from infected animals.

[9] = system: Eimeria tenella; parameters: method as in Alnassan et al., 2015; conditions: ref Alnassan et al., 2015; cited from earlier work
[10] = system: G. duodenalis trophozoites; assay: In vitro susceptibility, MTT reduction; assay type: cell-based, Giardia duodenalis (WB strain)
[11] = target: T1, giardipain-1 (Giardia intestinalis, UniProt P92132); assay: Inhibition of cytolytic effect of giardipain-1 on IEC6 cell monolayers; assay type: cell-based, Giardia duodenalis; conditions: 5.3 mM pre-incubated 30 min with giardipain-1 16 μg/mL; 100 min
T1 construct: the 25 kDa band that contains the processed form of the cathepsin B-like protease named as giardipain-1; endogenous in cells
Description: Additional assays were carried out using the MLCs of TACs (without giardipain-1) previously obtained in trophozoite cultures to monitor their toxicity. These solutions were added to monolayers of the intestinal cell line IEC6 grown in 1 cm^2-microwells and incubated for 100 min at 37°C. After incubation, supernatants were discarded and monolayers were fixed with 2% paraformaldehyde in PBS. The effects of TACs and E64 on the cytolytic effect of giardipain-1 were evaluated by light microscopy using Nomarski optics (Axioskop 40, Zeiss).

[12] = system: Entamoeba histolytica; parameters: method as in Ankri et al., 1997; conditions: ref Ankri et al., 1997; cited from earlier work
[13] = system: G. duodenalis trophozoites; assay: Electron microscopy of exposed trophozoites; assay type: cell-based, Giardia duodenalis
Description: Trophozoites were exposed to TACs in two ways: under long (24 h, standard toxicity) and short (3 h, acute toxicity) incubations at 37°C using concentrations corresponding to the experimental MLC (as determined at 24 h) and twofold the MLC, respectively. For scanning electron microscopy, PBS-washed parasites were fixed with 2.5% glutaraldehyde in 0.1 M sodium cacodylate buffer, pH 7.2, dehydrated under increasing concentrations of ethanol, critical-point dried using a Samdri apparatus, gold coated in an ion sputtering device (JEOL-JFC-1100), and examined with a JEOL 35-C scanning electron microscope. In transmission electron microscopy (TEM) studies, washed cells were fixed with 2.5% glutaraldehyde and post-fixed with 1% osmium tetroxide in cacodylate buffer. Following sequential dehydration in ethanol, samples were embedded with epoxy resins.

[14] = Tolerability and lethality in gerbils
Description: Eighty male Mongolian gerbils (M. unguiculatus) 6–10 weeks old, weighted 45–60 g and sentinel-checked gerbils free of intestinal parasites were kept in individual cages and distributed in 12 groups of 6 animals per treatment and experimental infections were performed as described elsewhere (Argüello-García and Ortega-Pierres, [1997]). In brief, animals were inoculated intragastrically with 1 × 10^6 G. duodenalis trophozoites in 500 μl sterile PBS per os using gavage under ether anesthesia. Control animals received 500 μl sterile PBS each. […] As additional control, one group of animals received MTZ (38.4 mg/kg at single or double dose). […] Treatment efficacy was evaluated by determining the presence or absence of trophozoites in intestinal contents of control and treated gerbils at day 13 post-infection. […] Supernatant was collected and centrifuged at 750 × g for 10 min at 4°C, cell pellet was resuspended in 1 mL PBS and trophozoites were counted using a haemocytometer. Gerbils were scored as cured if no trophozoites were recovered from infected animals.

[15] = system: Babesia microti; parameters: method as in Salama et al., 2014; conditions: mice, 30 mg/kg orally for 5 days; ref Salama et al., 2014; cited from earlier work
[16] = rat, no reference given; cited from earlier work

T1 sequence (P92132 75-300): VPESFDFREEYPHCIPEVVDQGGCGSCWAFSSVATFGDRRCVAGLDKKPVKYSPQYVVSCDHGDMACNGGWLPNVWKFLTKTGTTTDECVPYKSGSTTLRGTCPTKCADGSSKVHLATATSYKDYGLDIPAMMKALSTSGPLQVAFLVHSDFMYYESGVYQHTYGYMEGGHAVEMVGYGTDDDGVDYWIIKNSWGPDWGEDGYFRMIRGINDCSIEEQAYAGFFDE

C=CCS[S+]([O-])CC=C (stereo not shown) [ALC, diallyl thiosulfinate]
R4 cells positive for early apoptosis (annexin V+) [1]: 10.2% | cells at G1 phase ([2]; 0.6 mM): 7.4% and 7.43% | cells at G2/M phase ([2]; 0.6 mM): 4.4% and 4.44% | cells at G2 phase ([2]; 0.6 mM): 61.0% and 61.09% | cells at S phase ([2]; 0.6 mM): 27.03% | cells at G1 phase ([2]; 1.2 mM): 2.2% and 2.22% | cells at G2/M phase ([2]; 1.2 mM): 5.7% and 5.72% | cells at G2 phase ([2]; 1.2 mM): 75.53% | cells at S phase ([2]; 1.2 mM): 5.7% and 5.72% | IC50 ([3]; 24 h exposure (Figure 6B), read-out: IC50 ± SD): 0.322 ± 0.023 mM | IC50 ([3]; 24 h exposure, read-out: IC50 (mM) ±SD): 0.32 ± 0.02 mM | MLC (mM) ±SD ([3]; 24 h exposure): 0.6 mM (≈ 97.4 µg/mL) | concentration at which parasite replication was suppressed ([3]; 24 h exposure): 600 µM | MLC (mM) ±SD ([3]; 24 h exposure, listed as Allicin): 0.600 ± 0.016 mM (≈ 97.4 µg/mL) | MLC (mM) ±SD [4]: 1.285 ± 0.18 mM (≈ 209 µg/mL) | IC50 ([4]; Giardia duodenalis): 536 ± 103 µM | MLC (mM) ±SD [5]: 1.08 mM (≈ 175 µg/mL) | MLC (mM) ±SD ([5]; listed as Allicin): 1.088 ± 0.24 mM (≈ 177 µg/mL) | IC50 ([5]; Giardia duodenalis): 369 ± 21 µM | cells positive for ROS (total) [6]: 0.75% | IC50 [7]: > 1120 µM | cure rate (gerbils without trophozoites) ([8]; 35 mg/kg single dose intragastric day 10 p.i.): 3 out of 6 | cure rate (gerbils without trophozoites) ([8]; 70 mg/kg single dose intragastric day 10 p.i.): 5 out of 6 and 5/6 | cure rate (gerbils without trophozoites) ([8]; 138 mg/kg single dose intragastric day 10 p.i.): 6 out of 6 and 6/6 | cure rate (gerbils without trophozoites) ([8]; 276 mg/kg single dose intragastric day 10 p.i.): 5 out of 6 | intestinal parasite numbers ([8]; increasing single doses 35-276 mg/kg, day 13 p.i.): progressive decrease in parasite numbers | IC99 [9]: 11.1 mM | IC50 ([10]; Giardia duodenalis, MTT assay, value as quoted in Discussion): 686 µM | MLC (mM) ±SD ([10]; MTT, 24 h exposure): 1.490 ± 0.025 mM (≈ 242 µg/mL) | effect on giardipain-1 cytopathic damage in IEC6 monolayers [11]: noticeably blocked these effects | IC60 [12]: 500 µM | surface damage by scanning electron microscopy ([13]; 600 μM, 24 h (standard toxicity)): membrane blebbing process with profuse holes | intracellular damage by transmission electron microscopy ([13]; standard (600 μM 24 h) or acute (1.2 mM 3 h) protocol): complete loss of electron density of the intracellular elements and the integrity of plasma membrane | irritation in intestinal epithelium ([14]; 276 mg/kg single dose, treated non-infected animals, surgical examination): noticeable irritation in intestinal epithelium | lethal dose ([14]; intragastric route, gerbils): > 400 mg/kg | parasitemia [15]: significantly reduced parasitemia | oral lethality [16]: 980 mg/kg
